The source of these data is ChEMBL document CHEMBL6153075, “Design, synthesis, and antitumor evaluation of triazolopyridine derivatives as novel inhibitors for BRD4” (Eur J Med Chem, 2025).

The test system of data set [1] is MV4-11. The data set can be described thus: Antiproliferative activity against human MV4-11 cells.
The subject of data set [2] is HCT-116. The data set can be described thus: Antiproliferative activity against human HCT-116 cells. Format: functional, cell-based.
A short description of data set [3]: Metabolic stability in human liver microsomes assessed as half life preincubated for 5 mins followed by NADPH addition measured for 5 to 90 mins by LC-MS/MS analysis. Format: ADME, Microsome. To be noted: time 10-95 min. On the technique in general: Liver microsomes are a subcellular fraction often used to study metabolism.
Data set [4] in a line: Metabolic stability in human liver microsomes assessed as clearance preincubated for 5 mins followed by NADPH addition measured for 5 to 90 mins by LC-MS/MS analysis. Format: ADME, Microsome. The following applies: time 10-95 min, read-out: CLH.
For data set [5], the system named is HL-60. The data set can be described thus: Antiproliferative activity against human HL-60 cells. Format: functional, cell-based.
The nature of data set [6]: Blood concentration elimination rate constant for the terminal phase in ICR mouse at 1 mg/kg, iv measured for 5 to 480 mins by LC-MS/MS analysis. Format: ADME, organism-based. The following applies: time 5-480 min, read-out: LambdaZ (converted).
Data set [7] can be described thus: Drug uptake in ICR mouse plasma at 10 mg/kg, po measured for 5 to 480 mins by LC-MS/MS analysis. To be noted: in vivo, time 5-480 min. Format: ADME, organism-based.
Data set [8] can be described thus: Half life in ICR mouse at 1 mg/kg, iv measured for 5 to 480 mins by LC-MS/MS analysis. Format: ADME, organism-based. To be noted: in vivo, time 5-480 min.
A short description of data set [9]: Clearance in ICR mouse at 10 mg/kg, po measured for 5 to 480 mins by LC-MS/MS analysis. Format: ADME, organism-based. The following applies: in vivo, time 5-480 min.
The nature of data set [10]: AUC (0 to t) in ICR mouse at 1 mg/kg, iv measured for 5 to 480 mins by LC-MS/MS analysis. Format: ADME, organism-based. The following applies: in vivo, time 5-480 min.
Data set [11] is described as follows: Tmax in ICR mouse at 1 mg/kg, iv measured for 5 to 480 mins by LC-MS/MS analysis. Format: ADME, organism-based. The following applies: in vivo, time 5-480 min.
The test system of data set [12] is MV4-11. As to the kind of experiment: Induction of apoptosis in human MV4-11 cells at 0.25 to 10 uM incubated for 72 hrs by Annexin V-FITC/PI staining based flow cytometry (reference value: 43.2 %). Format: functional. The following applies: dose 0.25-10 µM. (In general: A flow cytometer gives signals particle by particle.)
Data set [13] in a line: AUC (0 to infinity) in ICR mouse at 1 mg/kg, iv measured for 5 to 480 mins by LC-MS/MS analysis. Format: ADME, organism-based. To be noted: in vivo, time 5-480 min.
A short description of data set [14]: MRT in ICR mouse at 10 mg/kg, po measured for 5 to 480 mins by LC-MS/MS analysis. Format: ADME, organism-based. To be noted: in vivo, time 5-480 min.
A short description of data set [15]: Tmax in ICR mouse at 10 mg/kg, po measured for 5 to 480 mins by LC-MS/MS analysis. Format: ADME, organism-based. The following applies: in vivo, time 5-480 min.
Data set [16] in a line: Cmax in ICR mouse at 1 mg/kg, iv measured for 5 to 480 mins by LC-MS/MS analysis. Format: ADME, organism-based. To be noted: in vivo, time 5-480 min.
A short description of data set [17]: AUC (0 to t) in ICR mouse at 10 mg/kg, po measured for 5 to 480 mins by LC-MS/MS analysis. Format: ADME, organism-based. To be noted: in vivo, time 5-480 min.
A short description of data set [18]: Blood concentration elimination rate constant for the terminal phase in ICR mouse at 10 mg/kg, po measured for 5 to 480 mins by LC-MS/MS analysis. Format: ADME, organism-based. To be noted: time 5-480 min, read-out: LambdaZ (converted).
The nature of data set [19]: MRT in ICR mouse at 1 mg/kg, iv measured for 5 to 480 mins by LC-MS/MS analysis. Format: ADME, organism-based. To be noted: in vivo, time 5-480 min.
Data set [20] is described as follows: Half life in ICR mouse at 10 mg/kg, po measured for 5 to 480 mins by LC-MS/MS analysis. Format: ADME, organism-based. To be noted: in vivo, time 5-480 min.
Data set [21] is described as follows: Oral bioavailability in ICR mouse at 10 mg/kg measured for 5 to 480 mins by LC-MS/MS analysis. Format: ADME, organism-based. The following applies: in vivo, time 5-480 min.
Data set [22] has as its system MV4-11. The data set can be described thus: Induction of apoptosis in human MV4-11 cells incubated for 72 hrs by Annexin V-FITC/PI staining based flow cytometry. Format: functional, cell-based. The following applies: dose 0.25-10 µM.
Data set [23] is described as follows: Volume of distribution at steady state in ICR mouse at 1 mg/kg, iv measured for 5 to 480 mins by LC-MS/MS analysis. Format: ADME, organism-based. To be noted: in vivo, time 5-480 min.
Data set [24] in a line: Cmax in ICR mouse at 10 mg/kg, po measured for 5 to 480 mins by LC-MS/MS analysis. Format: ADME, organism-based. The following applies: in vivo, time 5-480 min.
Data set [25] in a line: Clearance in ICR mouse at 1 mg/kg, iv measured for 5 to 480 mins by LC-MS/MS analysis. To be noted: in vivo, time 5-480 min. Format: ADME, organism-based.
Data set [26] is described as follows: Drug uptake in ICR mouse plasma at 1 mg/kg, iv measured for 5 to 480 mins by LC-MS/MS analysis. Format: ADME, organism-based. To be noted: in vivo, time 5-480 min.
The nature of data set [27]: AUC (0 to infinity) in ICR mouse at 10 mg/kg, po measured for 5 to 480 mins by LC-MS/MS analysis. Format: ADME, organism-based. To be noted: in vivo, time 5-480 min.

The IC50 is the concentration that gives 50% inhibition. A lower IC50 goes with greater potency in that assay. The compound `Cc1nnc2ccc(-c3nc4cnc(N5CCOCC5)cn4c3Nc3cccc(F)c3)cn12` registered an IC50 in [1] of 870 nM. That is a sub-micromolar value.
For the compound `COc1ccc(Nc2c(-c3ccc4nnc(C)n4c3)nc3cnc(N4CCOCC4)cn23)cc1`, the IC50 came to 560 nM in data set [1] and 4490 nM in data set [2].
Usually half-life stands for how long it takes for the measured level to halve. Regarding `Cc1nnc2ccc(-c3nc4cnc(N5CCOCC5)cn4c3Nc3ccc(C(F)(F)F)cc3)cn12`, the half-life in data set [3] was 2.56 h. Moreover, in data set [1], 290 nM corresponded to half-maximal inhibition (IC50). For the same compound, the microsomal CLint in [4] amounted to 4.52 µL/min/mg.
As to `Cc1nnc2ccc(-c3nc4cnc(-c5cnn(C)c5)cn4c3Nc3ccc(F)cc3)cn12`, the figures for the half-maximal inhibitory concentration (IC50) in data set [1] and in data set [5] were 4900 nM and 8250 nM, respectively.
The compound `CCc1nnc2ccc(-c3nc4cnc(N5CCN(C)CC5)cn4c3Nc3ccc(F)c(Cl)c3)cn12` displayed a 50% inhibitory concentration (IC50) in [1] of 740 nM. This lies in the sub-micromolar range.
What is called AUC(0-t) is exposure summed from dosing to a finite time, without extrapolation to infinity. A word on the Tmax: it is the time at which the peak concentration occurs. What is called AUC(0-inf) is total exposure, with the tail of the curve extrapolated. One may read the MRT as a mean duration of stay, worked out from the concentration-time curve. A word on the Cmax: it is the highest concentration seen after dosing. A word on the bioavailability: it is dose-corrected exposure relative to a reference, in per cent. Regarding `CCc1nnc2ccc(-c3nc4cnc(-c5cnn(C)c5)cn4c3Nc3ccc(F)cc3Br)cn12`, the k el is 0.000181 s⁻¹ in [6] and 9.72e-05 s⁻¹ in [18]. In addition, the half-life was 38.6 h in [3], 1.06 h in data set [8] and 2.26 h in [20]. The Drug uptake result in data set [7] and in data set [26] was “Active” in each case. Also, the CL was 0.001 (mg/kg)/(ng/ml)/hr in data set [9] and 2 10^-4(mg/kg)/(ng/ml)/hr in [25]. Also, the AUC(0-t) in data set [10] stood at 4640 ng·h/mL; in data set [17] it was 18300 ng·h/mL. Also, the Tmax in data set [11] worked out at 4.8 min; in data set [15], 0.5 h. Moreover, the Activity is reported as 83.2% in [12] and “Dose-dependent-effect; Activity Was Better Than (+)-Jq1” in [22]. The total exposure AUC(0-inf) turned out to be 4660 ng·h/mL in [13] and 20900 ng·h/mL in data set [27]. Besides, the MRT in data set [14] stood at 3.9 h; in [19], 1.32 h. Moreover, the maximum concentration (Cmax) in [16] was determined as 4410 ng/mL; in [24], 5480 ng/mL. The compound also displayed a half-maximal inhibitory concentration (IC50) in data set [1] of 20 nM. In [4], the microsomal CLint came to 0.3 µL/min/mg. Moreover, in [21], the bioavailability worked out at 44.8%. For the same compound, the Vdss in data set [23] is 3 10^-4(mg/kg)/(ng/ml).
`Cc1sc2c(c1C)C(c1ccc(Cl)cc1)=N[C@@H](CC(=O)OC(C)(C)C)c1nnc(C)n1-2`: the results for the concentration for half-maximal inhibition (IC50) in [1], in data set [2] and in data set [5] were 30 nM, 2700 nM and 3150 nM, respectively. Moreover, the Activity entry in [22] is “Dose-dependent-effect”.
